Converted amounts (≈) assume the structure as drawn. Like-named read-outs stand apart in the source and are kept apart here.
Assays:
[1] = Solubility of dronedarone hydrochloride and base form in lipid excipients (Table A); assay type: physicochemical
[2] = cited from earlier work
[3] = In-vitro dissolution test with a jump in pH (simulated gastric pH 4, then simulated intestinal pH 6.5); assay type: physicochemical; details: for percentage of active principle released (dissolution curves, in words): pH 4 for 60 min, then pH 6.5 up to 180 min, FIG. 1-7
From the text: In order to reproduce the effect of pH on the active principle and in particular on its dissolution during its passage through the gastrointestinal tract, a gastrointestinal environment was simulated by reproducing the pH of the stomach and then the pH of the intestine with a jump in pH. The dissolution kinetics was investigated using a simple in-vitro dissolution test with a jump in pH.
The principle consists of determining the dissolution of the formulated active principle by studying its dissolution kinetics at 37° C., firstly in simulated gastric medium at pH 4, then in simulated intestinal medium at pH 6.5, in a time interval consistent with the gastrointestinal tract.
Equipment: precision balance (Mettler AE200 or AT261), pH meter (Knick or Schott Geräte or Inolab), thermostated Dissolutest 6 or 7 bowls (Sotax AT6 or AT7), 5 μm filter (PALL Versapore 25 mm) with syringe (Térumo), UV spectrophotometer (Gilford Response II or Perkin Elmer) or HPLC (Merck or Agilent).
Dissolution media: The simulated physiological media representative of the gastrointestinal tract are obtained from simulated gastric and intestinal fluids recommended by the USP, but used without pepsin or pancreatin. • simulated gastric fluid—USP (without pepsin): • 2 g of sodium chloride per 900 ml of distilled water, • pH adjusted to 1.2 with concentrated hydrochloric acid (37%), • Q.S. 1000 ml with distilled water. • simulated intestinal fluid—USP (without pancreatin): • 6.8 g of potassium dihydrogen phosphate per 900 ml of distilled water, • pH adjusted to 7.5 with concentrated sodium hydroxide (10 M), • Q.S. 1000 ml with distilled water.
The simulated gastric medium of pH 4 is thus obtained by mixing the two simulated fluids in various proportions, monitoring with a pH electrode. The dissolution medium of the intestinal type is adjusted to pH 6.5 with a few drops of concentrated soda (10M) to simulate passage of the active principle into the beginning of the intestine, without leading to dilution.
Standard solutions of active principle are prepared in a solvent medium, preferably in the mobile phase or ethanol or methanol, and then analyzed at the characteristic wavelength of the active principle. A calibration straight line showing the concentrations as a function of the optical densities (analysis by UV spectrophotometry) or of the areas under peak (HPLC analysis) is then determined. The equation of the straight line obtained can be used for determining the concentration of dissolved active principle from measurement of the optical density or of the area under peak.
The concentration used corresponds to the dose in 250 ml (i.e. 4 capsules in a 500-ml bowl). The dissolution kinetics is first investigated in simulated gastric medium of pH 4 in the dissolution test in bowls thermostated at 37° C., with paddle stirring at 75 rpm, for 1 hour with sampling at times 5, 15, 30, 45 and 60 minutes, then in intestinal medium with an increase in pH to 6.5 by adding a small volume of concentrated soda (example: 0.400 ml for 500 ml of medium at pH 4), monitoring with a pH electrode. The kinetics is monitored for 3 hours with sampling at times 75, 90, 120 and 180 minutes and each sample is filtered at 5 μm and then analyzed.
Two methods of analysis can be used depending on the sensitivity required and the dosage form under investigation: UV spectrophotometry (for active principle only) or HPLC (for active principle only or formulated).
The concentration at a time t is determined based on the previously established calibration. During analysis by UV spectrophotometry, the whole absorption spectrum is monitored at least at the end of the kinetic study. In addition, the pH of the medium is monitored at the end of the kinetic study. […]

[4] = cited from earlier work; remark: listed apart in the source
[5] = Capmul PG8 (HLB 5), oil or lipid, in Capmul PG8 (HLB 5), RT, read-out: Solubility
[6] = Captex 355, oil or lipid, in Captex 355, RT, read-out: Solubility
[7] = Cremophor RH 40 (HLB 14), 55 °C, oil or lipid, in Cremophor RH 40 (HLB 14), 55° C., read-out: Solubility
[8] = Gelucire 33/01 (HLB 1), 55 °C, oil or lipid, in Gelucire 33/01 (HLB 1), 55° C., read-out: Solubility
[9] = Gelucire 43/01 (HLB 1), 55 °C, oil or lipid, in Gelucire 43/01 (HLB 1), 55° C., read-out: Solubility
[10] = Labrafac PG, oil or lipid, in Labrafac PG, RT, read-out: Solubility
[11] = Labrafil M1944Cs, oil or lipid, in Labrafil M1944Cs, RT, read-out: Solubility
[12] = Labrasol ALF, oil or lipid, in Labrasol ALF, RT, read-out: Solubility
[13] = Lauroglycol 90, oil or lipid, in Lauroglycol 90, RT, read-out: Solubility
[14] = Lipophilic Labrafac, oil or lipid, in Lipophilic Labrafac, RT, read-out: Solubility
[15] = Miglyol 812N, oil or lipid, in Miglyol 812N, RT, read-out: Solubility
[16] = PEG 400, organic solvent or mixture, in PEG 400, RT, read-out: Solubility
[17] = propylene glycol, organic solvent or mixture, in propylene glycol, RT, read-out: Solubility
[18] = soybean oil, oil or lipid, in soybean oil, RT, read-out: Solubility
[19] = surfactant Chrem RH40 (HLB 14), capsules G24 (HCl) / G25 (base)
[20] = surfactant Pluronic L44 (HLB 12), capsules G26 (HCl) / G27 (base), pH 6.5 after jump, 37° C.
[21] = surfactant Polox 188 (HLB 29), capsules G22 (HCl) / G23 (base)
[22] = surfactant Polox 407 (HLB 22), capsules G1 (HCl) / G5 (base)
[23] = surfactant Tween 60 (HLB 15), capsules G28 (HCl) / G29 (base)

| SMILES | solubility [1, 5] | solubility [1, 6] | solubility [1, 7] | solubility [1, 8] | solubility [1, 9] | solubility [1, 10] | solubility [1, 11] | solubility [1, 12] | solubility [1, 13] | solubility [1, 14] | solubility [1, 15] | solubility [1, 16] | solubility [1, 17] | solubility [1, 18] | percentage of active principle released (dissolution curves, in words) [3] | % of dronedarone at 180 min [3, 19] | % of dronedarone at 180 min [3, 20] | % of dronedarone at 180 min [3, 21] | % of dronedarone at 180 min [3, 22] | % of dronedarone at 180 min [3, 23] | further results |
| --- | --- | --- | --- | --- | --- | --- | --- | --- | --- | --- | --- | --- | --- | --- | --- | --- | --- | --- | --- | --- | --- |
| CCCCc1oc2ccc(NS(C)(=O)=O)cc2c1C(=O)c1ccc(OCCCN(CCCC)CCCC)cc1 [Dronedarone Base, 2-n-butyl-3-[4-(3-di-n-butylaminopropoxy)benzoyl]-5-methylsulfonamidobenzofuran] | 517 mg/mL (≈ 929 mM) | 167 mg/mL (≈ 299 mM) | > 313 mg/mL | 371 mg/mL (≈ 667 mM) | 259 mg/mL (≈ 465 mM) | 184 mg/mL (≈ 330 mM) | 208 mg/mL (≈ 374 mM) | 401 mg/mL (≈ 721 mM) | 311 mg/mL (≈ 558 mM) | 129 mg/mL (≈ 231 mM) | 144 mg/mL (≈ 258 mM) | 273 mg/mL (≈ 491 mM) | 18.2 mg/mL (≈ 32.7 mM) | 60.7 mg/mL (≈ 109 mM) | equivalent regardless of which nonionic surfactant is used | 85.3% | 76.38% | 71.32% | 72.89% | 81.12% | solubility ([1]; Crodamol EO (ethyl oleate), oil or lipid, in Crodamol EO (ethyl oleate), RT, read-out: Solubility): 154 mg/mL (≈ 276 mM); solubility ([1]; Gelucire 44/14 (HLB 14), 55 °C, oil or lipid, in Gelucire 44/14 (HLB 14), 55° C., read-out: Solubility): 633 mg/mL (≈ 1140 mM); solubility ([1]; Labrasol, oil or lipid, in Labrasol, RT, read-out: Solubility): > 400 mg/mL; solubility ([1]; ethanol, organic solvent or mixture, in ethanol, RT, read-out: Solubility): > 500 mg/mL; solubility ([1]; in Labrafil M1944Cs, RT): 192.6 mg/mL (≈ 346 mM); solubility ([1]; in Miglyol 812N, RT): 141.6 mg/mL (≈ 254 mM); solubility ([1]; in PEG 400, RT): 280.1 mg/mL (≈ 503 mM); solubility ([1]; in soybean oil, RT): 87.7 mg/mL (≈ 158 mM); solubility ([1]; oleic acid, oil or lipid, in Oleic acid, RT, read-out: Solubility): > 341 mg/mL; solubility ([1]; sweet almond oil, oil or lipid, in sweet almond oil, RT, read-out: Solubility): 45.2 mg/mL (≈ 81.2 mM); absolute bioavailability ([2]; taken with food): no more than 15%; absorption after oral administration ([2]; with a meal): at least 70% |
| CCCCc1oc2ccc(NS(C)(=O)=O)cc2c1C(=O)c1ccc(OCCCN(CCCC)CCCC)cc1.Cl [Dronedarone Hydrochloride, 2-n-butyl-3-[4-(3-di-n-butylaminopropoxy)benzoyl]-5-methylsulfonamidobenzofuran hydrochloride] | 10 mg/mL | 0.0353 mg/mL | 14.8 mg/mL | 0.0962 mg/mL | 0.0445 mg/mL | 0.0416 mg/mL | 0.504 mg/mL | 4.84 mg/mL | 2.09 mg/mL | 0.0251 mg/mL | 0.0409 mg/mL | 13.2 mg/mL | 15.8 mg/mL | 0.0231 mg/mL | better profiles for an HLB between 15 and 25 | 59.01% | 49.1% | 69.82% | 90.49% | 58.32% | behaviour on dilution to 1/10 with aqueous solution buffered at pH=7 ([4]; final pH of the medium=6.7): is precipitated; solubility ([4]; room temperature, pH=7): no more than 10 μg/ml |

Source: patent publication US9018250B2, “Pharmaceutical composition and dosage form comprising dronedarone, and preparation method thereof” (Sanofi, priority 2010, dated 2015)
